From paper PMC10229426, “An optimized bioluminescent substrate for non-invasive imaging in the brain” (Nature Chemical Biology, 2023)
Entries after “also recorded” stand apart in the source; their conditions may differ.

Columns and labels:
Antares luciferase = molecular target: T1, Antares luciferase (Oplophorus gracilirostris, UniProt Q9GV45, A31E/A60N/A81I/F95D/I117V/K70R/L54V/L99Q/M102K/N193R/P142E/Q151K/Q38R/Q45L/V71I/Y165I); assay: Non-invasive detection of Antares in the liver (Alb-cre driver); assay type: in vivo, mouse; details: 1.3 µmol i.p.
T1 construct: expressed in transfected cells; host or cells: transgenic mice with CAG-LSL-Antares at the H11 locus, crossed to Cre driver lines (neurons or liver)
From the text: Transgenic reporter mice with LSL-CAG-luciferase (Antares, FLuc or AkaLuc) inserted at the H11 locus (H11P) were generated by φC31-mediated recombination in blastocysts[48] by the Stanford Transgenic, Knockout and Tumor Model Center. For substrate comparisons, 2- to 4-month-old transgenic mice doubly hemizygous for a Camk2a-cre (Jackson Laboratory, 005359), Vgat-IRES-cre (Jackson Laboratory), Vglut2-IRES-cre (Jackson Laboratory, 016963) or Alb-cre (Jackson Laboratory, 003574) driver and a CAG-LSL-Antares, CAG-LSL-AkaLuc or CAG-LSL-FLuc reporter were anesthetized by inhalation of isoflurane for 5 min. An electric shaver was used to remove scalp hair in Camk2a-cre, Vglut2-IRES-cre or Vgat-IRES-cre mice or abdominal hair in Alb-cre mice. Nair depilatory cream (Church and Dwight) was then applied to the shaved area for 1 min, and remaining hair was removed with a piece of sterile gauze. […]
For mice expressing Antares, indicated amounts of Fz were dissolved in 480 µl of a PEG-300-based formulation consisting of 10% glycerol, 10% ethanol, 10% hydroxypropylcyclodextrin and 35% PEG-300 in water, or indicated amounts of lyophilized Fz analogs with P-407 vehicle were reconstituted in 150–500 µl of DPBS buffer. […] Integrated luminescence was quantified using the Fiji version of the ImageJ program (NIH)[49], with further statistical analysis performed in GraphPad Prism (version 9.0.0).

[1] = Toxicity in mice: necropsy and histopathology; assay type: in vivo, C57BL/6 mice; set-up: key: 0: absent; 1: present; details: individual mice
Procedure: (§1) Male C57BL/6 mice of 2 months of age were killed by CO2 asphyxiation and cardiac exsanguination. All mice were weighed, and a complete gross examination of the external and internal organs was performed. […] Formalin-fixed tissues were processed routinely, embedded in paraffin, sectioned at 5 μm and stained with hematoxylin and eosin. All slides were blindly evaluated for histologic treatment-related effects (Supplementary Table 1) by a board-certified veterinary pathologist.

[2] = Toxicity in mice: necropsy and histopathology; assay type: in vivo, C57BL/6 mice; set-up: key: 0: absent; 1: minimal; 2: mild; 3: moderate; 4: severe; details: individual mice
Procedure: as §1

Antares = Antares (Oplophorus gracilirostris, UniProt Q9GV45, A31E/A60N/A81I/F95D/I117V/K70R/L54V/L99Q/M102K/N193R/P142E/Q151K/Q38R/Q45L/V71I/Y165I); assay: Comparison of bioluminescence in luciferase-transduced (AAV) mouse brain hippocampus; assay type: in vivo, J:NU mice; set-up: P2A-mNeonGreen (self-cleaving; mNeonGreen is separated and a P2A remnant stays on Antares) (C); expressed in transfected cells; host or cells: hippocampus of J:NU mice transduced with AAV.DJ
From the text: For AAV packaging, pAAV-CMV-AkaLuc-P2A-mNeonGreen-WPRE plasmid and pAAV-CMV-Antares-P2A-mNeonGreen-WPRE were amplified and purified by a PureLink Expi endotoxin-free maxi plasmid purification kit (Invitrogen) and were sent to Stanford Gene Vector and Virus Core to produce and titer AAV.DJ vectors. Under sterile conditions, 12-week-old male J:NU mice (Jackson Laboratory, 007850) were anesthetized with isoflurane and secured in a stereotaxic frame (RWD Life Science), and a hole the size of the needle was drilled through the skull. A Hamilton syringe with a 33-gauge needle was inserted at anteroposterior −2.2 mm, mediolateral +1.7 mm and dorsoventral −1.7 mm. […] The needle was left in place for 3 min after each injection to minimize upward flow of viral solution. Two to 3 weeks after AAV infection, mice were injected i.p. with the indicated amount of CFz, Akalumine or FFz and imaged on the Ami HT (binning of 1 × 1 and exposure time of 10 s).

Sequence of Antares (Q9GV45 other isoform, or with tags, fused parts or gaps with the stated changes): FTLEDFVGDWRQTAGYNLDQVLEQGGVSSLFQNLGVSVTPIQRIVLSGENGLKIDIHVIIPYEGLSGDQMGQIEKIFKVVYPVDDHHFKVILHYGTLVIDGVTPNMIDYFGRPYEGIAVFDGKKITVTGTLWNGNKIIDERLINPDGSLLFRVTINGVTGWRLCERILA
T1 sequence (Q9GV45 other isoform, or with tags, fused parts or gaps with the stated changes): as above

## O=c1c(Cc2ccco2)nc2c(Cc3ccccc3)[nH]c(-c3cccc(F)c3F)cn1-2 [compound 6, cephalofurimazine]
Antares luciferase
  liver signal, 6 versus FFz: threefold dimmer than FFz
[1]; 1 day, 4.2 µmol, 20 mg P-407
  HT, heart telangiectasia score: 1
[1]; 3 days, 4.2 µmol, 20 mg P-407
  HPMC, heart perivascular myxomatous change score: 1
  HT, heart telangiectasia score: 1
[1]; 5 days, 1.3 µmol, 12 mg P-407
  HPMC, heart perivascular myxomatous change score: 1
  HT, heart telangiectasia score: 1
[2]; 1 day, 4.2 µmol, 20 mg P-407
  HPMC, heart perivascular myxomatous change score: 0
  HT, heart telangiectasia score: 0
  KCHMV, Kupffer cell hyperplasia and microvesicular vacuolation score: 0
[2]; 3 days, 1.3 µmol, 12 mg P-407
  HPMC, heart perivascular myxomatous change score: 0
  HT, heart telangiectasia score: 0
  KCHMV, Kupffer cell hyperplasia and microvesicular vacuolation score: 0
[2]; 3 days, 4.2 µmol, 20 mg P-407
  HPMC, heart perivascular myxomatous change score: 0
[2]; 5 days, 1.3 µmol, 12 mg P-407
  HPMC, heart perivascular myxomatous change score: 0
  HT, heart telangiectasia score: 0
Antares; 1.3 µmol CFz i.p., Antares and AkaLuc AAV co-infected hippocampus
  peak signal relative to 3.0 µmol of AkaLumine: comparable peak signal
Antares; CFz dose 3 µmol i.p., Antares and AkaLuc AAV co-infected hippocampus, listed as CFz
  brightness relative to 3 µmol of AkaLumine: threefold more signal; also recorded: about threefold higher
Antares; i.p., Antares AAV in hippocampus
  brightness relative to FFz: brighter than FFz by at least an order of magnitude
